# From patent US12412916B2, “Fuel cell with polymer electrolyte membrane” (HYUNDAI MOTOR COMPANY, priority 2022, dated 2025)
# How the values were obtained:
# [1] = format: physicochemical
# Experimental: The thermal stability was confirmed through thermogravimetric analysis (TGA), and specifically, each compound sample was put into a heating furnace of the thermogravimetric analyzer, and the temperature was elevated from room temperature to 120° C. at 20° C./min and maintained for 10 minutes, thereby removing the remaining water and performing stabilization. Thereafter, the weight change of the sample was measured while cooling to 60° C. at 20° C./min and heating from 60° C. to 800° C. at 10° C./min in a nitrogen atmosphere, and the results are shown in Table 1 below.
# [2] = format: physicochemical; remark: listed apart in the source
# Experimental: The solubility of each compound sample was observed by dissolving the same amount in a total of six solvents, including water, dimethylacetamide (DMAc), methanol, ethanol, 1-propanol and 2-propanol, and the results are shown in Table 1 and FIG. 4. In the results, if the phase separation is not visible with the naked eye and the sample is dissolved well, it is indicated as ∘, and if the phase separation is visible or the sample is not dissolved, it is indicated as x.
compound,measurement,setting,value
"CC(C)(C)c1cc(C(F)(F)C(F)(F)OC(F)(F)C(F)(F)S(=O)(=O)O)cc(C(C)(C)C)c1O [Example 1, sodium 2-(2-(3,5-di-tert-butyl-4-oxidophenyl)-1,1,2,2-tetrafluoroethoxy)-1,1,2,2-tetrafluoroethanesulfonate]",Thermal stability 5% decomposition temperature,[1],255 °C
same,Solubility 1-propanol,[2],○
same,Solubility 2-propanol,[2],○
same,Solubility DMAc,[2],○
same,Solubility Ethanol,[2],○
same,Solubility Methanol,[2],○
same,Solubility in water (in words),[2],not dissolved in water
